According to patent US6156700A, “3-(1,2-Benzisothiazol- and isoxazol-5-yl)-2,4(1H,3H)-pyrimidinedione or thione and 3-(1,2-benzisothiazol- and isoxazol-5-yl)-4(3H)-pyrimidinone or thione herbicidal agents” (American Cyanmid Company, priority 1998, dated 2000):

What was measured:
[1] = system: Foxtail, Green, Setaria viridis; test: Postemergence herbicidal evaluation, SETVI; format: in vivo, (L.) Beau
Method in brief: (§1)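 Scoring four to five weeks after treatment used a 0–9 scale based on plant appearance versus control. Treatment: 40 psi spray of about 0.0157–0.500 kg/ha onto two-week seedlings, compound dispersed in acetone/water 50/50 with 0.5% TWEEN 20.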

[2] = system: Rice, Tebonnet, Oryza sativa; test: Postemergence herbicidal evaluation, ORYSAT; format: in vivo, (L.) Tebonnet
Method in brief: as §1

Galium, Galium aparine [3] = test: Preemergence herbicidal evaluation, GALAP; format: in vivo; settings: 0.2500 kg/ha
Method in brief: (§2)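 Seeds mixed with potting soil were planted on about one inch of soil in cups, then sprayed with test compound in aqueous acetone at about 0.0156 to 0.500 kg per hectare. Plants were grown under greenhouse conditions and rated visually 4–5 weeks after treatment on a 0–9 scale against a control.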

[4] = system: Velvetleaf, Abutilon theophrasti; test: Postemergence herbicidal evaluation, ABUTH; format: in vivo, Medic.
Method in brief: as §1

[5] = system: SAGPY Arrowhead (Pygmaea); test: Postemergence weed control, flooded paddy (Table IV); format: in vivo, Sagittaria pygmaea; parameters: scale not given here
Method in brief: (§3)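 Weeds 3–5 cm tall and rice at 1.5–2.5 leaf stage in flooded containers, water held 1.5–3 cm above soil. Compounds in 50/50 aqueous/acetone applied into flood water at about 0.0313–0.500 kg/ha. Herbicidal effect rated visually three to four weeks after treatment.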

MOOVA Monochoria [6] = test: Preemergence weed control, flooded paddy (Table III); format: in vivo, Monochoria vaginalis; parameters: scale not given here
Procedure: (§4) Preemergence herbicidal activity under flooded paddy conditions is determined as follows: plant seeds or propagating organs are planted in the top 0.5 cm of silt loam soil in 32 oz. plastic containers with a diameter of 10.5 cm and no drainage holes. Water is added to these containers and maintained at 1.5 to 3 cm above the soil surface for the duration of the experiment. The test compounds are applied as aqueous/acetone mixtures 50/50 v/v pipetted directly into the flood water to give the equivalent of about 0.0313 to 0.500 kg/ha of active ingredient. The treated containers are placed on greenhouse benches and cared for in accordance with conventional greenhouse procedures. Three to four weeks after treatment, the test is terminated and each container is examined and herbicidal effect rated according to the rating system provided in Example 185. The compounds evaluated are reported by compound number given in Example 185.

Soybean, Glycine max = test: Postemergence herbicidal evaluation, GLXMA; format: in vivo, (L.) Merr.; settings: 0.2500 kg/ha
Procedure: In the tests, seedling plants are grown in jiffy flats for about two weeks. The test compounds are dispersed in 50/50 acetone/water mixtures containing 0.5% TWEEN®20, a polyoxyethylene sorbitan monolaurate surfactant of Atlas Chemical Industries, in sufficient quantities to provide the equivalent of about 0.0157 kg to 0.500 kg per hectare of active compound when applied to the plants through a spray nozzle operating at 40 psi for a predetermined time. After spraying, the plants are placed on greenhouse benches and are cared for in accordance with conventional greenhouse procedures. From four to five weeks after treatment, the seedling plants are examined and rated according to the rating system set forth below. Where more than one test is involved for a given compound, the data are averaged.
(§5) Results of herbicide evaluation are expressed on a rating scale (0-9). The scale is based upon a visual observation of plant stand, vigor, malformation, size, chlorosis and overall plant appearance as compared with a control.

[7] = system: Ragweed, Common, Ambrosia artemisifolia; test: Preemergence herbicidal evaluation, AMBEL; format: in vivo, L.; settings: 0.2500 kg/ha
Method in brief: as §2

[8] = system: Soybean, Williams, Glycine max; test: Postemergence herbicidal evaluation, GLXMAW; format: in vivo, (L.) Merr. cv Williams
Method in brief: as §1

[9] = system: Lambsquarters, Common, Chenopodium album; test: Postemergence herbicidal evaluation, CHEAL; format: in vivo, L.
Method in brief: as §1

[10] = system: Velvetleaf, Abutilon theophrasti; test: Preemergence herbicidal evaluation, ABUTH; format: in vivo, Medic.; settings: 0.2500 kg/ha
Method in brief: as §2

[11] = system: Barnyardgrass, Echinochloa crus-galli; test: Preemergence herbicidal evaluation, ECHCG; format: in vivo, (L.) Beau; settings: 0.2500 kg/ha
Method in brief: as §2

[12] = system: Morningglory Spp., Ipomoea Spp.; test: Preemergence herbicidal evaluation, IPOSS; format: in vivo; settings: 0.2500 kg/ha
Description: as §5
The preemergence herbicidal activity of the test compounds of the present invention is exemplified by the following tests in which the seeds of a variety of monocotyledonous and dicotyledonous plants are separately mixed with potting soil and planted on top of approximately one inch of soil in separate pint cups. After planting, the cups are sprayed with the selected aqueous acetone solution containing test compound in sufficient quantity to provide the equivalent of about 0.0156 to 0.500 kg per hectare of test compound per cup. The treated cups are then placed on greenhouse benches, watered and cared for in accordance with conventional greenhouse procedures. From four to five weeks after treatment, the tests are terminated and each cup is examined and rated according to the rating system provided in Example 185.
The compounds evaluated are reported by compound number given in Example 185.

CYPIR Rice Flatsedge = test: Postemergence weed control, flooded paddy (Table IV); format: in vivo, Cyperus iria; parameters: scale not given here
Method in brief: as §3

MOOVA Monochoria [13] = test: as above; format: in vivo, Monochoria vaginalis; parameters: scale not given here
Method in brief: as §3

Galium, Galium aparine [14] = test: Postemergence herbicidal evaluation, GALAP; format: in vivo
Method in brief: as §1

[15] = system: Barnyardgrass, Echinochloa crus-galli; test: Postemergence herbicidal evaluation, ECHCG; format: in vivo, (L.) Beau
Method in brief: as §1

[16] = system: Lambsquarters, Common, Chenopodium album; test: Preemergence herbicidal evaluation, CHEAL; format: in vivo, L.; settings: 0.2500 kg/ha
Method in brief: as §2

[17] = system: Morningglory, Ivyleaf, Ipomoea hederacea; test: Postemergence herbicidal evaluation, IPOHE; format: in vivo, (L.) Jacq.; settings: 0.0630 kg/ha
Method in brief: as §1

CYPSE Flatsedge [18] = test: Preemergence weed control, flooded paddy (Table III); format: in vivo, Cyperus serotinus; parameters: scale not given here
Procedure: as §4

CYPSE Flatsedge [19] = test: Postemergence weed control, flooded paddy (Table IV); format: in vivo, Cyperus serotinus; parameters: scale not given here
Method in brief: as §3

[20] = system: Foxtail, Green, Setaria viridis; test: Preemergence herbicidal evaluation, SETVI; format: in vivo, (L.) Beau; settings: 0.2500 kg/ha
Method in brief: as §2

`Cc1nsc2ccc(-n3c(=O)cc(C(F)(F)F)n(C)c3=O)cc12` [Compound 6, 1-Methyl-3-(3-methyl-1,2-benzisothiazol-5-yl)-6-(trifluoromethyl)-2,4(1H,3H)-pyrimidinedione] was tested, and the “herbicide rating (0-9)” value ([1]; 0.0630 kg/ha) was 2.0, the “herbicide rating (0-9)” value ([1]; 0.2500 kg/ha) was 9.0 and the “herbicide rating (0-9)” value ([2]; 0.0630 kg/ha) was 1.8. For the same compound, the “herbicide rating (0-9)” value ([2]; 0.2500 kg/ha) was 5.0, the “herbicide rating (0-9)” value (Galium, Galium aparine [3]) was 9.0 and the “herbicide rating (0-9)” value ([4]; 0.0630 kg/ha) was 9.0. The “herbicide rating (0-9)” value ([4]; 0.2500 kg/ha) was 9.0, the herbicidal effect rating ([5]; 0.1250 kg/ha) was 6.0 and the herbicidal effect rating ([5]; 0.2500 kg/ha) was 8.0. For the same compound, the herbicidal effect rating ([5]; 0.5000 kg/ha) was 9.0, the herbicidal effect rating (MOOVA Monochoria [6]; 0.0625 kg/ha) was 9.0 and the herbicidal effect rating (MOOVA Monochoria [6]; 0.1250 kg/ha) was 9.0. The herbicidal effect rating (MOOVA Monochoria [6]; 0.2500 kg/ha) was 9.0, the herbicidal effect rating (MOOVA Monochoria [6]; 0.5000 kg/ha) was 9.0 and the “herbicide rating (0-9)” value (Soybean, Glycine max) was 6.0. For the same compound, the “herbicide rating (0-9)” value [7] was 9.0, the “herbicide rating (0-9)” value ([8]; 0.0630 kg/ha) was 4.8 and the “herbicide rating (0-9)” value ([8]; 0.2500 kg/ha) was 7.0. The “herbicide rating (0-9)” value ([9]; 0.0630 kg/ha) was 7.0, the “herbicide rating (0-9)” value ([9]; 0.2500 kg/ha) was 9.0 and the “herbicide rating (0-9)” value [10] was 9.0. For the same compound, the “herbicide rating (0-9)” value [11] was 9.0, the “herbicide rating (0-9)” value [12] was 9.0 and the herbicidal effect rating (CYPIR Rice Flatsedge; 0.1250 kg/ha) was 9.0. The herbicidal effect rating (CYPIR Rice Flatsedge; 0.2500 kg/ha) was 9.0, the herbicidal effect rating (CYPIR Rice Flatsedge; 0.5000 kg/ha) was 9.0 and the herbicidal effect rating (MOOVA Monochoria [13]; 0.1250 kg/ha) was 9.0. The herbicidal effect rating (MOOVA Monochoria [13]; 0.2500 kg/ha) was 9.0, the herbicidal effect rating (MOOVA Monochoria [13]; 0.5000 kg/ha) was 9.0 and the “herbicide rating (0-9)” value (Galium, Galium aparine [14]; 0.0630 kg/ha) was 5.0. The “herbicide rating (0-9)” value (Galium, Galium aparine [14]; 0.2500 kg/ha) was 9.0, the “herbicide rating (0-9)” value ([15]; 0.0630 kg/ha) was 1.5 and the “herbicide rating (0-9)” value ([15]; 0.2500 kg/ha) was 6.0. For the same compound, the “herbicide rating (0-9)” value [16] was 9.0, the “herbicide rating (0-9)” value [17] was 5.0 and the herbicidal effect rating (CYPSE Flatsedge [18]; 0.0625 kg/ha) was 4.0. The herbicidal effect rating (CYPSE Flatsedge [18]; 0.1250 kg/ha) was 7.0, the herbicidal effect rating (CYPSE Flatsedge [18]; 0.2500 kg/ha) was 9.0 and the herbicidal effect rating (CYPSE Flatsedge [18]; 0.5000 kg/ha) was 9.0. For the same compound, the herbicidal effect rating (CYPSE Flatsedge [19]; 0.1250 kg/ha) was 7.0, the herbicidal effect rating (CYPSE Flatsedge [19]; 0.2500 kg/ha) was 7.0 and the herbicidal effect rating (CYPSE Flatsedge [19]; 0.5000 kg/ha) was 9.0. For the same compound, the “herbicide rating (0-9)” value [20] was 9.0.
